Laboratory results reported in US12653901B2, “Anti-EDB antibodies and antibody-drug conjugates” (Pfizer Inc., priority 2016, dated 2026).
“Also recorded” adds a separate entry of the source. Read-outs that look alike come from different tables or passages of the source. Where a SMILES comes first, the peptide text is derived from it. [ ]: non-standard residue; d: D form. The star is where a group is joined. Dolaproine = CO[C@@H]([C@@H]1CCCN1)[C@@H](C)C(=O)O; Dil = CC[C@H](C)[C@H](NC)[C@@H](CC(=O)O)OC; Doe = c1ccc(C[C@H](N*)c2nccs2)cc1; Aib = CC(C)(N)C(=O)O

How the values were obtained:
[1] = tested on: WI38-VA13 cells; assay: In vitro cytotoxicity, WI38-VA13; format: cell-based, human; details: for IC50: Homo sapiens
Description: (§1) Proliferating WI38-VA13 or HT29 cells were harvested from culture flasks with non-enzymatic cell dissociation buffer and cultured overnight in 96-well plates (Corning) at 1000 cells/well in a humidified chamber (37° C., 5% CO2). The next day, cells were treated with EDB ADCs or isotype control non-EDB-binding ADCs by adding 50 μl of 3× stocks in duplicate at 10 concentrations. In some experiments, cells were plated at 1500 cells/well and treated the same day. Cells were then incubated with EDB ADCs or isotype control non-EDB-binding ADCs for four days. On harvest day, 50 μl of Cell Titer Glo (Promega) was added to the cells and incubated 0.5 hours at room temperature. Luminescence was measured on a Victor plate reader (Perkin Elmer, Waltham, MA). Relative cell viability was determined as a percentage of untreated control wells. IC50 values were calculated using four-parameter logistic model #203 with XLfit v4.2 (IDBS).

[2] = tested on: HT29 cells; assay: In vitro cytotoxicity, HT29; format: cell-based, human; details: for IC50: Homo sapiens; for Avg IC50: HT29 (EDB+ FN negative), four days, ng/ml of antibody
Description: as §1

[3] = tested on: PDX-NSX-11122; assay: In vivo efficacy, PDX-NSX-11122 NSCLC PDX; parameters: species or system mouse
Excerpt: (§2) To generate PDX models, tumors were collected from donor animals and tumor fragments approximately 3×3 mm were implanted subcutaneously into the flank of female athymic nude mice (for PDX-NSX-11122 model) or NOD SCID mice (for PDX-PAX-13565 and PDX-PAX-12534 models) by using a 10 gage trocar. When average tumor volume reached approximately 160 to 260 mm^3 the mice were randomized into treatment groups, with 7-10 mice in each group. ADCs or vehicle (PBS) dosing regime and administration route as well as tumor measurement procedures are the same as described above for CLX models. […] Tumor growth inhibition is plotted as an average of tumor size±SEM.

[4] = tested on: PDX-PAX-13565; assay: In vivo efficacy, PDX-PAX-13565 pancreatic PDX; parameters: species or system mouse; details: 0.3, 1 and 3 mg/kg
Excerpt: as §2

[5] = tested on: HT29; assay: In vivo efficacy, HT29 colon CLX; parameters: species or system mouse; details: 3 mg/kg
Excerpt: (§3) To generate CLX models, 8×10^6 to 10×10^6 cells of H-1975, HT29, or Ramos tumor lines were implanted into female athymic nude mice subcutaneously. Ramos and H-1975 cells for inoculation were suspended in 50% and 100% […]® (BD Biosciences, biological call culture substrate), respectively. For the Ramos model, the animals received whole body irradiation (4 Gy) before cell inoculation to facilitate the establishment of tumors. When the average tumor volume reached approximately 160 to 320 mm^3, the animals were randomized into treatment groups, with 8-10 mice in each group. ADCs or vehicle (PBS) were administered intravenously on day 0 and then the animals were dosed once every 4 days for 4 to 8 doses. Tumors were measured once or twice weekly and tumor volume was calculated as volume (mm^3)[…](width×width×length)/2.

[6] = tested on: EMT6 syngeneic tumors; assay: Immune response in treated EMT6 syngeneic tumors; format: in vivo, mouse
[7] = tested on: H-1975; assay: In vivo efficacy, H-1975 NSCLC CLX; parameters: species or system mouse; details: intravenous, once every 4 days, doses as in value
Excerpt: as §3

[8] = tested on: PDX-PAX-12534; assay: In vivo efficacy, PDX-PAX-12534 pancreatic PDX; parameters: species or system mouse; details: 0.3, 1 and 3 mg/kg
Excerpt: as §2

[9] = tested on: Ramos; assay: In vivo efficacy, Ramos lymphoma CLX; parameters: species or system mouse; details: 1 and 3 mg/kg
Excerpt: as §3

[10] = target: recombinant cynomolgus monkey 7-EDB-89; assay: SPR binding kinetics to cynomolgus monkey 7-EDB-89
Chain of recombinant cynomolgus monkey 7-EDB-89 (as listed by the source): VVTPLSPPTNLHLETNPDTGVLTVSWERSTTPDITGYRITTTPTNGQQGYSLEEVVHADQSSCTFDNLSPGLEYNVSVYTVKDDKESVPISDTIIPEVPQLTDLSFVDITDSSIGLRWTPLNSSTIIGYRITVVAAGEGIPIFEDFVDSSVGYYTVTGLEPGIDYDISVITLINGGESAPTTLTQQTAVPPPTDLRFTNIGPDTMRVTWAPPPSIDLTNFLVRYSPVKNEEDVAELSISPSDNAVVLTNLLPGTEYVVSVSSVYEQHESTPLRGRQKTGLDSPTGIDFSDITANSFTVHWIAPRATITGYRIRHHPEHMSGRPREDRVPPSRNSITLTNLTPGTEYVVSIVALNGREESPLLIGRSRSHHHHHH
Description: Binding is detected by surface SPR of laser light refracting from the surface. Analysis of the signal kinetics on-rate (ka) and off-rate (kd), allows the discrimination between non-specific and specific interactions.
The running and sample buffer used was HBS-EP+ buffer (0.01M HEPES, 0.15M NaCl, 3 mM EDTA, and 0.05% v/v surfactant P20 pH7.4). […] All SPR assays were performed at 25° C. with a data collection rate of 1 Hz using a BIACORE® (Cytiva; surface plasmon resonance (SPR) system) T200 instrument (GE Healthcare). The resulting sensorgrams were double referenced (Myszka, D. G., J. Mol. Recognit., 12:279-284, 1999) using both a control surface and buffer injections. The rate constants were determined by fitting the data to a 1:1 Langmuir model with BIACORE® (Cytiva; surface plasmon resonance (SPR) system) T200 evaluation software v2.0 and the equation KD=kd/ka. Each experiment was run in duplicate and the average KD was determined.

[11] = WI-38 VA13, unconjugated payload, WI38-VA13, read-out: Avg IC50
[12] = HT-29, unconjugated payload, HT29, read-out: Avg IC50

CC[C@H](C)[C@@H]([C@@H](CC(=O)N1CCC[C@H]1[C@H](OC)[C@@H](C)C(=O)N[C@@H](Cc1ccccc1)c1nccs1)OC)N(C)C(=O)[C@@H](NC(=O)C(C)(C)N)C(C)C [Payload-0101] (H-[Aib]V[Dil][Dolaproine]-Doe)
IC50 ([1]; WI-38 VA13, read-out: Avg IC50): 0.392 nM | IC50 ([2]; HT-29, read-out: Avg IC50): 0.09 nM

Cc1c[nH]c2c1[C@@]13C[C@@H]1CN(C(=O)C14CC5(C(=O)N6C[C@H]7C[C@@]78C6=CC(=O)c6[nH]cc(C)c68)CC15C4)C3=CC2=O (stereo partly drawn) [Payload-0326]
IC50 ([1]; WI-38 VA13, read-out: Avg IC50): < 0.001 nM | IC50 ([2]; HT-29, read-out: Avg IC50): 0.049 nM

CC[C@H](C)[C@@H]([C@@H](CC(=O)N1CCC[C@H]1[C@H](OC)[C@@H](C)C(=O)N[C@@H](Cc1ccc(N)cc1)c1nccs1)OC)N(C)C(=O)[C@@H](NC(=O)C(C)(C)N(C)C)C(C)C [Payload-1569]
IC50 [1, 11]: 0.269 nM | IC50 [2, 12]: 0.074 nM

CC[C@H](C)[C@@H]([C@@H](CC(=O)N1CCC[C@H]1[C@H](OC)[C@@H](C)C(=O)N[C@@H](Cc1ccc(CS)cc1)c1nccs1)OC)N(C)C(=O)[C@@H](NC(=O)C(C)(C)N(C)C)C(C)C [Payload-4574]
IC50 ([1]; WI-38 VA13, read-out: Avg IC50): 3.54 nM | IC50 ([2]; HT-29, read-out: Avg IC50): 3.65 nM

CC[C@H](C)[C@@H]([C@@H](CC(=O)N1CCC[C@H]1[C@H](OC)[C@@H](C)C(=O)N[C@@H](Cc1ccc(N)cc1)c1nccs1)OC)N(C)C(=O)[C@@H](NC(=O)[C@]1(C)CCCN1C)C(C)C [Payload-9411]
IC50 [1, 11]: 0.519 nM | IC50 [2, 12]: 0.197 nM

COc1cc2cc(c1Cl)N(C)C(=O)C[C@H](OC(=O)[C@H](C)N(C)C(=O)CCS)[C@]1(C)O[C@H]1[C@H](C)[C@@H]1C[C@@](O)(NC(=O)O1)[C@H](OC)/C=C/C=C(\C)C2 [Payload-DM1, mertansine, reference compound]
IC50 ([1]; WI-38 VA13, read-out: Avg IC50): 3.06 nM | IC50 ([2]; HT-29, read-out: Avg IC50): 2.63 nM

ADC1: EDB-L19 antibody conventionally conjugated via cysteine residues to auristatin 0101 with vc linker
anti-tumor activity ([3]; 1 mg/kg): delayed tumor growth | anti-tumor activity ([3]; 3 mg/kg): complete regressions | anti-tumor activity ([3]; intravenous, once every 4 days, doses as in value, listed as EDB-L19-vc-0101): tumor regression in a dose dependent manner at 3 mg/kg and 1.5 mg/kg; also recorded: greater efficacy as compared to isotype negative control ADCs and ADCs that were generated using a disulfide linker | anti-tumor efficacy [4]: tumor regression in a dose dependent manner | anti-tumor activity [5]: tumor regression at the 3 mg/kg dose over time | expression of PDL1 ([6]; treated tumors): increased expression of PDL1 | infiltration of CD3+ T cells ([6]; treated tumors vs. vehicle controls): Increased infiltration of CD3+ T cells | anti-tumor activity ([7]; listed as EDB-L19-vc-0101): tumor regression in a dose dependent manner at 3 mg/kg, and at as low as 1.5 mg/kg; also recorded: tumor regression at the highest doses evaluated | Avg IC50 [2]: 15,346 ng/ml | anti-tumor efficacy [8]: tumor regression in a dose dependent manner | anti-tumor activity [9]: tumor regression at the 3 mg/kg dose in a dose dependent manner

ADC5: EDB-L19 antibody conjugated to DM1 with disulfide (diS) linker
Avg IC50 ([1]; WI38-VA13 (EDB+ FN positive), four days, ng/ml of antibody): 0.268 µg/mL | Avg IC50 [2]: 237 ng/mL

ADC10: EDB-L19 antibody conjugated to auristatin 1569 with vc linker
anti-tumor activity [7]: tumor regression in a dose dependent manner | Avg IC50 [2]: 5,702 ng/ml

Ab1: L19 human monoclonal IgG1 antibody binding EDB; HC SEQ ID NO: 8, LC SEQ ID NO: 15
Kd [10]: 188 nM | ka [10]: 560000 M⁻¹ s⁻¹ | kd [10]: 0.105 s⁻¹
